Laboratory results: PubChem BioAssay AID2769 (The Scripps Research Institute Molecular Screening Center, 2010)

Biological target: VIM-2 metallo-beta-lactamase (Pseudomonas aeruginosa) (UniProt Q9K2N0)
Test: VIM-2 metallo-beta-lactamase inhibitor potency, late-stage follow-up, biochemical, epi-absorbance, dose response (AID 2769)
Details: purified VIM-2, nitrocefin absorbance hydrolysis

Going from `Cc1cc[c]([Hg+])cc1` to `CC(=O)Nc1cc[c]([Hg+])cc1`, the IC50 rises from 814 nM to 2580 nM (3.2-fold). The first is the more potent here.

Compared with `O=C(O)c1cc[c]([Hg][Cl])cc1`, `O=C(O)c1ccc[c]([Hg+])c1` is 3.2-fold lower in IC50: 2590 nM for the first, 817 nM for the second. The second is the more potent here.

For `[Hg+][c]1ccccc1`, the IC50 was 1000 nM.
